Results from patent US8952024B2, “Herbicidal pyrimidone derivatives” (E I du Pont de Nemours and Company, priority 2009, dated 2015).

Legend:
Format in all cases: in vivo
[1] = system: goosegrass (Eleusine indica); assay: Test B pre-/postemergence plant response; details: Preemergence, 62 g ai/ha; scale 0 to 100, 0 no effect, 100 complete control
[2] = system: rice (Oryza sativa); assay: Test B flooded paddy test; details: for Plant response rating, Rice: Flood (flooded paddy test), 13 to 15 days
Summary of the method: (§1)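 Plants were grown to the 2-leaf stage, then pots were flooded to 3 cm above the soil and compounds were applied directly into the paddy water. That depth was held throughout. After 13 to 15 days in a greenhouse, injury was visually rated against controls on a 0–100 scale.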

[3] = system: barnyardgrass (Echinochloa crus-galli); assay: Test B flooded paddy test; details: for Plant response rating, Barnyardgrass: Flood (flooded paddy test), 13 to 15 days
Summary of the method: as §1

[4] = system: umbrella sedge (Cyperus difformis); assay: Test B flooded paddy test; details: for Plant response rating, Sedge, Umbrella: Flood (flooded paddy test), 13 to 15 days
Summary of the method: as §1

[5] = system: ducksalad (Heteranthera limosa); assay: Test B flooded paddy test; details: for Plant response rating, Ducksalad: Flood (flooded paddy test), 13 to 15 days
Summary of the method: as §1

[6] = system: chickweed (Stellaria media); assay: Test B postemergence plant response; details: Postemergence
Summary of the method: (§2)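 Visual ratings from 0 (no effect) to 100 (complete control), made against controls 13–15 days after treatment, kept in a greenhouse. Compounds were applied postemergence to potted plants at the 1- to 4-leaf stage (2–18 cm).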

[7] = system: windgrass (Apera spica-venti); assay: Test B postemergence plant response; details: Postemergence
Summary of the method: as §2

[8] = system: winter barley (Hordeum vulgare); assay: Test B postemergence plant response; details: Postemergence
Summary of the method: as §2

[9] = system: canarygrass (Phalaris minor); assay: Test B postemergence plant response; details: Postemergence
Summary of the method: as §2

[10] = system: galium (catchweed bedstraw, Galium aparine); assay: Test B pre-/postemergence plant response; details: Preemergence
Summary of the method: (§3)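 Visually scored on a 0 to 100 scale after 13 to 15 days in greenhouse versus controls. Treatments were preemergence on seeded loam/sand soil and postemergence on 1- to 4-leaf plants.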

[11] = system: pigweed (Amaranthus retroflexus); assay: Test B pre-/postemergence plant response
Summary of the method: as §3

[12] = system: wild oat (Avena fatua); assay: Test B pre-/postemergence plant response
Summary of the method: as §3

[13] = system: nightshade (eastern black nightshade, Solanum ptycanthum); assay: Test B pre-/postemergence plant response; details: Preemergence
Summary of the method: as §3

[14] = system: sunflower (common oilseed sunflower, Helianthus annuus); assay: Test B pre-/postemergence plant response; details: Preemergence
Summary of the method: as §3

[15] = 250 g ai/ha, flooded paddy test, visual rating on 0 to 100 scale (0 no effect, 100 complete control) after 13 to 15 days
[16] = 31 g ai/ha, scale of 0 to 100 where 0 is no effect and 100 is complete control
[17] = 62 g ai/ha, scale 0 to 100, 0 is no effect, 100 is complete control
[18] = 125 g ai/ha, scale 0 to 100, 0 is no effect, 100 is complete control
[19] = 31 g ai/ha, scale 0 to 100 (0 no effect, 100 complete control)
[20] = 62 g ai/ha, scale 0 (no effect) to 100 (complete control), 13 to 15 days
[21] = 125 g ai/ha, visual rating after 13 to 15 days, scale 0 (no effect) to 100 (complete control)
[22] = 62 g ai/ha, scale 0 to 100, 0 no effect, 100 complete control
[23] = 250 g ai/ha, Preemergence, 0 to 100 scale
[24] = Postemergence, 31 g ai/ha, scale 0 to 100 (0 no effect, 100 complete control)
[25] = Postemergence, 62 g ai/ha, scale 0 (no effect) to 100 (complete control), 13 to 15 days
[26] = Postemergence, 125 g ai/ha, visual rating after 13 to 15 days, scale 0 (no effect) to 100 (complete control)
[27] = Postemergence, 250 g ai/ha, scale 0 to 100
[28] = Preemergence, 31 g ai/ha, scale 0 to 100 (0 no effect, 100 complete control)
[29] = Preemergence, 125 g ai/ha, 0 to 100 scale

**Q.** “5-[(1-ethyl-5-hydroxy-1H-pyrazol-4-yl)carbonyl]-2-phenyl-3-(phenylmethyl)-4(3H)-pyrimidinone [Compound 20]” was tested. Which “Plant response rating, Goosegrass” value [1] did it give?
**A.** 70

**Q.** What about the “Plant response rating, Flood, Rice” value [2, 15] of the same substance?
**A.** 0

**Q.** What about the “Plant response rating, Rice” value [2, 16] of the same substance?
**A.** 0

**Q.** What about the “Plant response rating, Rice” value [2, 17] of the same substance?
**A.** 0

**Q.** And the “Plant response rating, Rice” value [2, 18]?
**A.** 0

**Q.** And the “Plant response rating, Flood, Barnyardgrass” value [3, 15]?
**A.** 0

**Q.** And the “Plant response rating, Barnyardgrass” value [3, 16]?
**A.** 0

**Q.** What about the “Plant response rating, Barnyardgrass” value [3, 17] of the same substance?
**A.** 0

**Q.** And the “Plant response rating, Barnyardgrass” value [3, 18]?
**A.** 0

**Q.** What about the “Plant response rating, Flood, Sedge, Umbrella” value [4, 15] of the same substance?
**A.** 60

**Q.** And the “Plant response rating, Sedge, Umbrella” value [4, 16]?
**A.** 40

**Q.** And the “Plant response rating, Sedge, Umbrella” value [4, 17]?
**A.** 50

**Q.** What about the “Plant response rating, Sedge, Umbrella” value [4, 18] of the same substance?
**A.** 60

**Q.** What about the “Plant response rating, Flood, Ducksalad” value [5, 15] of the same substance?
**A.** 70

**Q.** What about the “Plant response rating, Ducksalad” value [5, 16] of the same substance?
**A.** 0

**Q.** And the “Plant response rating, Ducksalad” value [5, 17]?
**A.** 0

**Q.** What about the “Plant response rating, Ducksalad” value [5, 18] of the same substance?
**A.** 70

**Q.** And the “Plant response rating, Chickweed” value [6, 19]?
**A.** 90

**Q.** And the “Plant response rating, Chickweed” value [6, 20]?
**A.** 98

**Q.** What about the “Plant response rating, Chickweed” value [6, 21] of the same substance?
**A.** 98

**Q.** And the “Chickweed plant response rating” value ([6]; 250 g ai/ha, scale 0 to 100)?
**A.** 100

**Q.** And the “Plant response rating, Windgrass” value [7, 19]?
**A.** 0

**Q.** And the “Plant response rating, Windgrass” value [7, 20]?
**A.** 0

**Q.** What about the “Plant response rating, Windgrass” value [7, 21] of the same substance?
**A.** 0

**Q.** What about the “Windgrass plant response rating” value ([7]; 250 g ai/ha, scale 0 to 100) of the same substance?
**A.** 5

**Q.** And the “Plant response rating, Barley” value [8, 19]?
**A.** 0

**Q.** What about the “Plant response rating, Barley” value [8, 20] of the same substance?
**A.** 0

**Q.** What about the “Plant response rating, Barley” value ([8]; 125 g ai/ha, scale 0 to 100 (0 no effect, 100 complete control), 13 to 15 days) of the same substance?
**A.** 0

**Q.** And the “Barley plant response rating” value ([8]; 250 g ai/ha, scale 0 to 100)?
**A.** 0

**Q.** What about the “Plant response rating, Canarygrass” value [9, 19] of the same substance?
**A.** 0

**Q.** And the “Plant response rating, Canarygrass” value [9, 20]?
**A.** 0

**Q.** And the “Plant response rating, Canarygrass” value [9, 21]?
**A.** 0

**Q.** What about the “Canarygrass plant response rating” value ([9]; 250 g ai/ha, scale 0 to 100) of the same substance?
**A.** 5

**Q.** What about the “Plant response rating, Galium” value ([10]; 250 g ai/ha, 0 to 100 scale) of the same substance?
**A.** 50

**Q.** And the “Plant response rating, Galium” value [10, 19]?
**A.** 0

**Q.** And the “Plant response rating, Galium” value [10, 22]?
**A.** 5

**Q.** What about the “Galium plant response rating” value ([10]; 125 g ai/ha, 0 to 100 scale) of the same substance?
**A.** 30

**Q.** What about the “Plant response rating, Pigweed” value [11, 23] of the same substance?
**A.** 95

**Q.** What about the “Plant response rating, Pigweed” value [11, 24] of the same substance?
**A.** 75

**Q.** What about the “Plant response rating, Pigweed” value [11, 25] of the same substance?
**A.** 90

**Q.** And the “Plant response rating, Pigweed” value [11, 26]?
**A.** 100

**Q.** And the “Pigweed plant response rating” value [11, 27]?
**A.** 100

**Q.** And the “Plant response rating, Pigweed” value [11, 28]?
**A.** 85

**Q.** What about the “Pigweed plant response rating” value [11, 29] of the same substance?
**A.** 90

**Q.** What about the “Plant response rating, Oat, Wild” value [12, 23] of the same substance?
**A.** 0

**Q.** And the “Plant response rating, Oat, Wild” value [12, 24]?
**A.** 0

**Q.** What about the “Plant response rating, Oat, Wild” value [12, 25] of the same substance?
**A.** 0

**Q.** What about the “Plant response rating, Oat, Wild” value [12, 26] of the same substance?
**A.** 5

**Q.** What about the “Oat, Wild plant response rating” value [12, 27] of the same substance?
**A.** 50

**Q.** What about the “Plant response rating, Oat, Wild” value [12, 28] of the same substance?
**A.** 0

**Q.** And the “Plant response rating, Oat, Wild” value ([12]; Preemergence, 62 g ai/ha, scale 0 to 100, 0 no effect, 100 complete control)?
**A.** 0

**Q.** What about the “Oat, Wild plant response rating” value [12, 29] of the same substance?
**A.** 0

**Q.** What about the “Plant response rating, Nightshade” value ([13]; 250 g ai/ha, 0 to 100 scale) of the same substance?
**A.** 100

**Q.** And the “Plant response rating, Nightshade” value [13, 19]?
**A.** 50

**Q.** What about the “Nightshade plant response rating” value ([13]; 125 g ai/ha, 0 to 100 scale) of the same substance?
**A.** 98

**Q.** And the “Plant response rating, Sunflower” value ([14]; 250 g ai/ha, 0 to 100 scale)?
**A.** 85

**Q.** And the “Plant response rating, Sunflower” value [14, 19]?
**A.** 50

**Q.** What about the “Plant response rating, Sunflower” value [14, 22] of the same substance?
**A.** 70

**Q.** What about the “Sunflower plant response rating” value ([14]; 125 g ai/ha, 0 to 100 scale) of the same substance?
**A.** 70
